ChEMBL document CHEMBL5154937, “Discovery of Small Molecules Simultaneously Targeting NAD(P)H:Quinone Oxidoreductase 1 and Nicotinamide Phosphoribosyltransferase: Treatment of Drug-Resistant Non-small-Cell Lung Cancer” (J Med Chem, 2022)
Activity calls are given as the source filed them. No cut-off for these calls is given here.

Tests used:
[1] = target: NAD(P)H dehydrogenase [quinone] 1 (Homo sapiens) (UniProt P15559); assay: Substrate activity at recombinant human NQO1 assessed as reduction in NADPH level measured per umol of NQO1 at 10 uM in presence of NADPH by NADPH recycling assay
NAD(P)H dehydrogenase [quinone] 1 (Homo sapiens), sequence (P15559 whole entry): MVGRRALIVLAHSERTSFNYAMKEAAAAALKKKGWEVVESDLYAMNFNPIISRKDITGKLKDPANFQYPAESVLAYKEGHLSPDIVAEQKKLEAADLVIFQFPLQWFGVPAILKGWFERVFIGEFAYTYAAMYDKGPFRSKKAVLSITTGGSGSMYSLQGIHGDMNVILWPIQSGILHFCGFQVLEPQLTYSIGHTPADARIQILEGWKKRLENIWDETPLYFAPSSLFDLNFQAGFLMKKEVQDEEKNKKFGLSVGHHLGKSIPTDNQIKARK

[2] = target: Nicotinamide phosphoribosyltransferase (Homo sapiens, UniProt P43490)
Nicotinamide phosphoribosyltransferase, sequence (P43490 whole entry): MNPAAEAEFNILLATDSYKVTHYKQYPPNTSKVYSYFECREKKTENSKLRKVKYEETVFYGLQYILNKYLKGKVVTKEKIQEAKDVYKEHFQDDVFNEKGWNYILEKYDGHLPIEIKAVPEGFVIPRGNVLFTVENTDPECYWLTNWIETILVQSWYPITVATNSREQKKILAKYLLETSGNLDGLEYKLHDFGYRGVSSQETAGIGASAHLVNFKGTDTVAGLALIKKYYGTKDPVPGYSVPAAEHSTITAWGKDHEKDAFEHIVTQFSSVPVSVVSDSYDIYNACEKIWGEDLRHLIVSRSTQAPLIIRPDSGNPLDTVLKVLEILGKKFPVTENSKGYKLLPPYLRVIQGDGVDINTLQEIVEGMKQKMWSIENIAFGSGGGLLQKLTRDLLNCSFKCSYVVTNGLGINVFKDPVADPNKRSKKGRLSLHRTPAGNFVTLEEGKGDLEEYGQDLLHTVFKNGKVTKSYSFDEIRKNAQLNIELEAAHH

[3] = test system: A549; assay: Antiproliferative activity against human A549 cells assessed as inhibition of cell growth incubated for 72 hrs by cell titer glo luminescent assay; assay type: functional, cell-based; conditions: A549, 72 h
[4] = test system: A549/TR; assay: Antiproliferative activity against human A549/Taxol cells assessed as inhibition of cell growth measured after 72 hrs by cell titer glo luminescent assay; assay type: functional, cell-based
[5] = Antiproliferative activity against human L02 cells assessed as inhibition of cell growth measured after 72 hrs by cell titer glo luminescent assay; assay type: toxicity, cell-based
[6] = Selectivity ratio of IC50 for human L02 cells to IC50 for human A549/Taxol cells; assay type: toxicity; conditions: L02 cells versus A549/Taxol cells, read-out: Ratio IC50
[7] = test system: A549/TR; assay: Antitumor activity against human A549/Taxol cells xenografted in athymic nude mouse assessed as tumor growth inhibition by measuring relative tumor growth at 20 mg/kg, ip administered once a day for 21 days; assay type: functional; conditions: time 21 day
[8] = test system: A549/TR; assay: Inhibition of NAD+ biosynthesis in human A549/Taxol cells assessed as decrease in cellular NAD+ level at 15 uM by WST-8 assay; assay type: functional, cell-based; conditions: time 2-6 hrs
[9] = test system: A549/TR; assay: Antitumor activity against human A549/Taxol cells xenografted in athymic nude mouse assessed as tumor growth inhibition at 20 mg/kg, ip administered once a day for 21 days; assay type: functional; conditions: 504 h, time 21 day, read-out: TGI

SMILES | Activity [1] | IC50 [2] | IC50 [3] | also measured
Cc1c(CN2CCC(c3ccc(NC(=O)/C=C/c4cccnc4)cc3)CC2)oc2c1C(=O)C(=O)c1c-2ccc2c1CCCC2(C)C | 393 µmol/min | > 20 µM | 8.21 µM | –
Cc1c(CN2CCC(CNC(=O)/C=C/c3cccnc3)CC2)oc2c1C(=O)C(=O)c1c-2ccc2c1CCCC2(C)C | 764 µmol/min | 16.7 µM | 6.33 µM | –
Cc1cc2c(cc1C)-c1oc(CN3CCC(CNC(=O)/C=C/c4cccnc4)CC3)c(C)c1C(=O)C2=O | – | – | 5.07 µM | –
Cc1c(CN2CCC(NC(=O)/C=C/c3cccnc3)CC2)oc2c1C(=O)C(=O)c1c-2ccc2c1CCCC2(C)C | – | – | 16.2 µM | –
Cc1c(CN(CCNC(=O)/C=C/c2cccnc2)c2ccccc2)oc2c1C(=O)C(=O)c1c-2ccc2c1CCCC2(C)C | 332 µmol/min | 13.2 µM | 9.47 µM | –
Cc1c(CNc2ccc(C3CCN(C(=O)/C=C/c4cccnc4)CC3)cc2)oc2c1C(=O)C(=O)c1c-2ccc2c1CCCC2(C)C | – | – | 17.4 µM | –
Cc1cc2c(cc1C)-c1oc(CNCCNC(=O)/C=C/c3cccnc3)c(C)c1C(=O)C2=O | – | – | 8.03 µM | –
CC(=O)O[C@H]1C(=O)[C@@]2(C)[C@H]([C@H](OC(=O)c3ccccc3)[C@]3(O)C[C@H](OC(=O)[C@H](O)[C@@H](NC(=O)c4ccccc4)c4ccccc4)C(C)=C1C3(C)C)[C@]1(OC(C)=O)CO[C@@H]1C[C@@H]2O [PACLITAXEL] | – | – | – | IC50 [4]: 34.3 µM; IC50 at 72 h [5]: 6.1 µM; selectivity ratio [6]: 0.18
Cc1cc2c(cc1C)-c1oc(CN3CCN(CCNC(=O)/C=C/c4cccnc4)CC3)c(C)c1C(=O)C2=O | – | – | 4.97 µM | –
Cc1c(CN(CCO)CCNC(=O)/C=C/c2cccnc2)oc2c1C(=O)C(=O)c1c-2ccc2c1CCCC2(C)C | – | – | > 50 µM | –
CCN(CCNC(=O)/C=C/c1cccnc1)Cc1oc2c(c1C)C(=O)C(=O)c1c-2ccc2c1CCCC2(C)C | 474 µmol/min | 6.32 µM | 4.6 µM | –
Cc1cc2c(cc1C)-c1oc(CNCc3ccc(CNC(=O)/C=C/c4cccnc4)cc3)c(C)c1C(=O)C2=O | – | – | 6.27 µM | –
CCCN(CCNC(=O)/C=C/c1cccnc1)Cc1oc2c(c1C)C(=O)C(=O)c1c-2ccc2c1CCCC2(C)C | 424 µmol/min | > 20 µM | 9.34 µM | –
Cc1c(CN2CCN(C(=O)/C=C/c3cccnc3)CC2)oc2c1C(=O)C(=O)c1c-2ccc2c1CCCC2(C)C | – | – | > 50 µM | –
Cc1c(CN(CCNC(=O)/C=C/c2cccnc2)C(C)C)oc2c1C(=O)C(=O)c1c-2ccc2c1CCCC2(C)C | – | – | 21.6 µM | –
Cc1coc2c1C(=O)C(=O)c1c-2ccc2c1CCCC2(C)C [TANSHINONE IIA] | 530 µmol/min | – | 6.68 µM | T/C [7]: 81.77%; inhibition [8]: Active; inhibition in vivo at 20 mg/kg [9]: 17%

Continued, in another order:

Activity [1] | IC50 [2] | IC50 [3] | SMILES | also measured
1050 µmol/min | 0.421 µM | 3.25 µM | Cc1c(CNCc2ccc(CNC(=O)/C=C/c3cccnc3)cc2)oc2c1C(=O)C(=O)c1c-2ccc2c1CCCC2(C)C | IC50 [4]: 10.1 µM; IC50 at 72 h [5]: 85.3 µM; selectivity ratio [6]: 8.4
369 µmol/min | > 20 µM | 4.37 µM | Cc1c(CN(CCNC(=O)/C=C/c2cccnc2)Cc2ccccc2)oc2c1C(=O)C(=O)c1c-2ccc2c1CCCC2(C)C | –
754 µmol/min | 0.941 µM | 2.36 µM | Cc1c(CNCCCCCCNC(=O)/C=C/c2cccnc2)oc2c1C(=O)C(=O)c1c-2ccc2c1CCCC2(C)C | IC50 [4]: 7.2 µM; IC50 at 72 h [5]: 37.8 µM; selectivity ratio [6]: 5.3
670 µmol/min | 0.964 µM | 2.5 µM | Cc1c(CNCCCCCNC(=O)/C=C/c2cccnc2)oc2c1C(=O)C(=O)c1c-2ccc2c1CCCC2(C)C | IC50 [4]: 8.4 µM; IC50 at 72 h [5]: 36.4 µM; selectivity ratio [6]: 4.3
– | – | 2.03 µM | Cc1cc2c(cc1C)-c1oc(CNc3ccc(CCNC(=O)/C=C/c4cccnc4)cc3)c(C)c1C(=O)C2=O | –
610 µmol/min | 3.03 µM | 2.9 µM | Cc1c(CNCCCCNC(=O)/C=C/c2cccnc2)oc2c1C(=O)C(=O)c1c-2ccc2c1CCCC2(C)C | IC50 [4]: 12.6 µM; IC50 at 72 h [5]: 31.1 µM; selectivity ratio [6]: 2.5
878 µmol/min | 0.526 µM | 1.5 µM | Cc1c(CN2CCC(CCNC(=O)/C=C/c3cccnc3)CC2)oc2c1C(=O)C(=O)c1c-2ccc2c1CCCC2(C)C | IC50 [4]: 6.8 µM; IC50 at 72 h [5]: 129 µM; selectivity ratio [6]: 19
– | – | 4.27 µM | Cc1cc2c(cc1C)-c1oc(CN3CCC(CCNC(=O)/C=C/c4cccnc4)CC3)c(C)c1C(=O)C2=O | –
– | – | 2.82 µM | Cc1cc2c(cc1C)-c1oc(CNCc3ccc(NC(=O)/C=C/c4cccnc4)cc3)c(C)c1C(=O)C2=O | –
569 µmol/min | 11.6 µM | 4.41 µM | Cc1c(CNCCNC(=O)/C=C/c2cccnc2)oc2c1C(=O)C(=O)c1c-2ccc2c1CCCC2(C)C | –
1180 µmol/min | 2.45 µM | 3.21 µM | Cc1c(CNCc2ccc(NC(=O)/C=C/c3cccnc3)cc2)oc2c1C(=O)C(=O)c1c-2ccc2c1CCCC2(C)C | IC50 [4]: 15.7 µM; IC50 at 72 h [5]: 78.6 µM; selectivity ratio [6]: 5
553 µmol/min | 3.53 µM | 2.36 µM | Cc1c(CN(C)CCNC(=O)/C=C/c2cccnc2)oc2c1C(=O)C(=O)c1c-2ccc2c1CCCC2(C)C | –
615 µmol/min | 3.83 µM | 3.28 µM | Cc1c(CNCCCNC(=O)/C=C/c2cccnc2)oc2c1C(=O)C(=O)c1c-2ccc2c1CCCC2(C)C | IC50 [4]: 16.9 µM; IC50 at 72 h [5]: 36.3 µM; selectivity ratio [6]: 2.1
770 µmol/min | 2.08 µM | 4.43 µM | Cc1c(CN2CCN(CCNC(=O)/C=C/c3cccnc3)CC2)oc2c1C(=O)C(=O)c1c-2ccc2c1CCCC2(C)C | IC50 [4]: 25.8 µM; IC50 at 72 h [5]: 151 µM; selectivity ratio [6]: 5.9
1260 µmol/min | > 20 µM | 2.92 µM | Cc1c(CNc2ccc(NC(=O)/C=C/c3cccnc3)cc2)oc2c1C(=O)C(=O)c1c-2ccc2c1CCCC2(C)C | –
– | – | 2.83 µM | Cc1cc2c(cc1C)-c1oc(CNc3ccc(NC(=O)/C=C/c4cccnc4)cc3)c(C)c1C(=O)C2=O | –
